Active and inactive are the calls of the source. The calls are words filed in the database; no cut-off is given here.
Experiments:
3T3-L1 [1] = assay: Anti-adipogenic activity against mouse 3T3-L1 cells assessed as decrease in triglyceride level at 1 uM by Oil Red O staining based spectroscopic analysis; assay type: functional; parameters: scale not given: the % may be the effect or the level left
3T3-L1 [2] = assay: Anti-adipogenic activity against mouse 3T3-L1 cells assessed as decrease in triglyceride level by Oil Red O staining based spectroscopic analysis; assay type: functional, cell-based
[3] = Cytotoxicity against mouse 3T3-L1 cells assessed as reduction in cell viability incubated for 24 hrs by MTT assay; assay type: toxicity, cell-based
[4] = Selectivity index, ratio of IC50 for cytotoxicity against mouse 3T3-L1 cells to EC50 for anti-adipogenic activity against mouse 3T3-L1 cells; assay type: cell-based; settings: read-out: Ratio IC50/EC50
3T3-L1 [5] = assay: Anti-adipogenic activity against mouse 3T3-L1 cells at lipogenesis stage assessed as decrease in triglyceride level at 1 uM and measured on 3 to 6 days by Oil Red O staining based spectroscopic analysis; assay type: functional, cell-based; settings: time 3-6 day
3T3-L1 [6] = assay: Anti-adipogenic activity against mouse 3T3-L1 cells assessed as downregulation of PPARgamma mRNA expression level at 0.1 to 1 uM incubated for 24 hrs by RT-qPCR analysis; assay type: functional, cell-based; settings: dose 0.1-1 µM
3T3-L1 [7] = assay: Anti-adipogenic activity against mouse 3T3-L1 cells assessed as downregulation of C/EBPalpha mRNA expression level at 0.1 to 1 uM incubated for 24 hrs by RT-qPCR analysis; assay type: functional, cell-based; settings: dose 0.1-1 µM
3T3-L1 [8] = assay: Anti-adipogenic activity against mouse 3T3-L1 cells assessed as downregulation of C/EBPbeta mRNA expression level at 0.1 to 1 uM incubated for 24 hrs by RT-qPCR analysis; assay type: functional, cell-based; settings: dose 0.1-1 µM
3T3-L1 [9] = assay: Anti-adipogenic activity against mouse 3T3-L1 cells assessed as downregulation of C/EBPdelta mRNA expression level at 0.1 to 1 uM incubated for 24 hrs by RT-qPCR analysis; assay type: functional, cell-based; settings: dose 0.1-1 µM
3T3-L1 [10] = assay: Anti-adipogenic activity against mouse 3T3-L1 cells assessed as downregulation of DGAT2 mRNA expression level at 0.1 to 1 uM incubated for 6 days by RT-qPCR analysis; assay type: functional, cell-based; settings: dose 0.1-1 µM, time 6.0 day
3T3-L1 [11] = assay: Anti-adipogenic activity against mouse 3T3-L1 cells assessed as downregulation of C/EBPbeta protein expression level at 0.1 to 1 uM incubated for 24 hrs by Western blot analysis; assay type: functional, cell-based; settings: dose 0.1-1 µM
3T3-L1 [12] = assay: Anti-adipogenic activity against mouse 3T3-L1 cells assessed as downregulation of FAS protein expression level at 0.1 to 1 uM incubated for 6 days by Western blot analysis; assay type: functional, cell-based; settings: dose 0.1-1 µM, time 6.0 day
3T3-L1 [13] = assay: Anti-adipogenic activity against mouse 3T3-L1 cells assessed as downregulation of ACC protein expression level at 0.1 to 1 uM incubated for 6 days by Western blot analysis; assay type: functional, cell-based; settings: dose 0.1-1 µM, time 6.0 day
Mus musculus [14] = assay: Anti-obesity activity in high fat diet-induced obese C57BL/6J mouse assessed as reduction in visceral fat content by measuring subcutis white adipose tissue weight at 40 mg/kg, ip administered every two days for 46 days; assay type: functional, organism-based; settings: time 46.0 day
Mus musculus [15] = assay: Anti-obesity activity in high fat diet-induced obese C57BL/6J mouse assessed as reduction in visceral fat content by measuring perirenal white adipose tissue weight at 40 mg/kg, ip administered every two days for 46 days; assay type: functional, organism-based; settings: time 46.0 day
Mus musculus [16] = assay: Anti-obesity activity in high fat diet-induced obese C57BL/6J mouse model assessed as increase in glucose clearance at 40 mg/kg, ip administered every two days for 3 weeks pretreated with compound and followed by glucose challenge and measured upto 120 mins by IPGTT assay; assay type: functional, organism-based
Mus musculus [17] = assay: Anti-obesity activity in high fat diet-induced obese C57BL/6J mouse model assessed as reduction in blood glucose level at 40 mg/kg, ip administered every two days for 5 weeks pretreated with compound and followed by insulin stimulation and measured upto 120 mins by insulin tolerance test; assay type: functional, organism-based
Mus musculus [18] = assay: Anti-obesity activity in high fat diet-induced obese C57BL/6J mouse model assessed as reduction in plasma insulin level at 40 mg/kg, ip administered every two days for 46 days; assay type: functional, organism-based; settings: time 46.0 day
Mus musculus [19] = assay: Anti-obesity activity in high fat diet-induced obese C57BL/6J mouse model assessed as reduction in triglyceride level at 40 mg/kg, ip administered every two days for 46 days; assay type: functional, organism-based; settings: time 46.0 day
Mus musculus [20] = assay: Anti-obesity activity in high fat diet-induced obese C57BL/6J mouse model assessed as reduction in free fatty acid level at 40 mg/kg, ip administered every two days for 46 days; assay type: functional, organism-based; settings: time 46.0 day
Mus musculus [21] = assay: Anti-obesity activity in high fat diet-induced obese C57BL/6J mouse model assessed as increase in COX4 expression level in inguen white adipose tissue at 40 mg/kg, ip administered every two days for 46 days by immunohistochemical analysis; assay type: functional, organism-based; settings: time 46.0 day
Mus musculus [22] = assay: Anti-obesity activity in high fat diet-induced obese C57BL/6J mouse model assessed as increase in […] expression level in inguen white adipose tissue at 40 mg/kg, ip administered every two days for 46 days by immunohistochemical analysis; assay type: functional, organism-based; settings: time 46.0 day
Mus musculus [23] = assay: Anti-obesity activity in high fat diet-induced obese C57BL/6J mouse model assessed as increase in COX4 expression level in liver at 40 mg/kg, ip administered every two days for 46 days by immunohistochemical analysis; assay type: functional, organism-based; settings: time 46.0 day
Mus musculus [24] = assay: Anti-obesity activity in high fat diet-induced obese C57BL/6J mouse model assessed as increase in PGC-1alpha expression level in liver at 40 mg/kg, ip administered every two days for 46 days by immunohistochemical analysis; assay type: functional, organism-based; settings: time 46.0 day
Mus musculus [25] = assay: Anti-obesity activity in high fat diet-induced obese C57BL/6J mouse model assessed as increase in PGC-1alpha expression level in brown adipocyte at 40 mg/kg, ip administered every two days for 46 days by immunohistochemical analysis; assay type: functional, organism-based; settings: time 46.0 day
[26] = molecular target: Serine/threonine-protein kinase mTOR (Mus musculus) (UniProt Q9JLN9); assay: Inhibition of mTOR signalling in mouse 3T3-L1 cells assessed as upregulation of LC3II expression level at 0.1 to 10 uM incubated for 24 hrs by Western blot analysis; assay type: cell-based; settings: dose 0.1-10 µM
[27] = molecular target: Serine/threonine-protein kinase mTOR (Mus musculus) (UniProt Q9JLN9); assay: Inhibition of mTOR signalling in mouse 3T3-L1 cells assessed as upregulation of LC3I expression level at 0.1 to 10 uM incubated for 24 hrs by Western blot analysis; assay type: cell-based; settings: dose 0.1-10 µM
Mus musculus [28] = assay: In vivo inhibition of mTOR signalling in high fat diet-induced obese C57BL/6J mouse model assessed as decrease in mTOR phosphorylation at S2481 in inguen white adipose tissue at 40 mg/kg, ip administered every two days for 46 days by Western blot analysis; assay type: functional, organism-based; settings: time 46.0 day
3T3-L1 [29] = assay: Anti-adipogenic activity in SiRNA mediated Raptor knockdown mouse 3T3-L1 cells assessed as C/EBPalpha expression level at 10 uM by Western blot analysis; assay type: functional, cell-based
mTORC1 (Mus musculus) [30] = molecular target: mTORC1 (Mus musculus) (UniProt Q9JLN9); assay: Inhibition of mTORC1 formation in mouse 3T3-L1 cells assessed as decrease in phosphorylated-S6K1 expression level at 10 uM incubated for 24 hrs by Western blot analysis; assay type: cell-based
mTORC1 (Mus musculus) [31] = molecular target: mTORC1 (Mus musculus) (UniProt Q9JLN9); assay: Inhibition of mTORC1 formation in mouse 3T3-L1 cells assessed as increase in 4E-BP1 expression level at 10 uM incubated for 24 hrs by Western blot analysis; assay type: cell-based
3T3-L1 [32] = assay: Anti-adipogenic activity in siRNA-mediated LC3B knockdown mouse 3T3-L1 cells assessed as decrease in triglyceride level at 10 uM by Oil Red O staining based microscopic analysis; assay type: functional, cell-based

inhibition [26]: Active
inhibition [27]: Active
inhibition (mTORC1 (Mus musculus) [30]): Active
inhibition (mTORC1 (Mus musculus) [31]): Active
SMILES: C=C(C)[C@@]12OC3(c4ccccc4)O[C@@H]1[C@@H]1[C@H](O)[C@](Cl)(COC(=O)c4ccccc4)[C@@H](O)[C@]4(O)C(=O)C(C)=C[C@H]4[C@@]1(O3)[C@H](C)[C@H]2OC(C)=O
Activity (3T3-L1 [1]): >50%
EC50 (3T3-L1 [2]): 0.097 µM
IC50 at 24 h [3]: > 100 µM
selectivity ratio [4]: > 1030
Activity (3T3-L1 [5]): inactive
Activity (3T3-L1 [6]): Active
Activity (3T3-L1 [7]): Active
Activity (3T3-L1 [8]): Active
Activity (3T3-L1 [9]): Active
Activity (3T3-L1 [10]): Active
Activity (3T3-L1 [11]): Active
Activity (3T3-L1 [12]): Active
Activity (3T3-L1 [13]): Active
Activity (Mus musculus [14]): Active
Activity (Mus musculus [15]): Active
Activity (Mus musculus [16]): Active
Activity (Mus musculus [17]): Active
Activity (Mus musculus [18]): Active
Activity (Mus musculus [19]): Active
Activity (Mus musculus [20]): Active
Activity (Mus musculus [21]): Active
Activity (Mus musculus [22]): Active
Activity (Mus musculus [23]): Active
Activity (Mus musculus [24]): Active
Activity (Mus musculus [25]): Active
inhibition (Mus musculus [28]): Active
Activity (3T3-L1 [29]): Active
Activity (3T3-L1 [32]): Active

Reference: ChEMBL document CHEMBL5380850, “Discovery of the First Raptor (Regulatory-Associated Protein of mTOR) Inhibitor as a New Type of Antiadipogenic Agent” (J Med Chem, 2023)
